In patent publication US20250026721A1, “COMPOUNDS AND METHODS FOR MODULATING RAS-PI3K” (Vividion Therapeutics, Inc., priority 2023, published 2025):

Experiments:
[1] = biological target: T1, PIK3CA_C242 (Homo sapiens, UniProt P42336); test: Proteomic TE50 (IA-DTB / TMT mass spectrometry) in Jurkat cell lysate; assay type: binding; conditions: 1 hour at rt, 7-point dose response
T1 construct: endogenous in cells; host or cells: Jurkat cell lysate
Summary of the method: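 Jurkat lysate (500 μg) treated with compound (7-point, 1:5 dilutions) for 1 h at rt, then labelled with 200 μM IA-DTB for 1 h. After digestion and streptavidin enrichment, the C242 peptide was quantified by targeted MS3 TMT. TE50 was derived from reporter-ion S/N dose-response curves.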

[2] = biological target: T2, PIK3CA (Homo sapiens, UniProt P42336); test: In vitro ELISA target engagement assay for PIK3CA in Jurkat cellular lysate (competition with PIK3CA Biotin Probe); assay type: binding; conditions: 1 hour at rt, then 500 nM PIK3CA Biotin Probe, read-out: Elisa Target Engagement Assay (TE50)
T2 construct: endogenous in cells; host or cells: Jurkat cell lysate
T2 sequence (P42336 whole entry): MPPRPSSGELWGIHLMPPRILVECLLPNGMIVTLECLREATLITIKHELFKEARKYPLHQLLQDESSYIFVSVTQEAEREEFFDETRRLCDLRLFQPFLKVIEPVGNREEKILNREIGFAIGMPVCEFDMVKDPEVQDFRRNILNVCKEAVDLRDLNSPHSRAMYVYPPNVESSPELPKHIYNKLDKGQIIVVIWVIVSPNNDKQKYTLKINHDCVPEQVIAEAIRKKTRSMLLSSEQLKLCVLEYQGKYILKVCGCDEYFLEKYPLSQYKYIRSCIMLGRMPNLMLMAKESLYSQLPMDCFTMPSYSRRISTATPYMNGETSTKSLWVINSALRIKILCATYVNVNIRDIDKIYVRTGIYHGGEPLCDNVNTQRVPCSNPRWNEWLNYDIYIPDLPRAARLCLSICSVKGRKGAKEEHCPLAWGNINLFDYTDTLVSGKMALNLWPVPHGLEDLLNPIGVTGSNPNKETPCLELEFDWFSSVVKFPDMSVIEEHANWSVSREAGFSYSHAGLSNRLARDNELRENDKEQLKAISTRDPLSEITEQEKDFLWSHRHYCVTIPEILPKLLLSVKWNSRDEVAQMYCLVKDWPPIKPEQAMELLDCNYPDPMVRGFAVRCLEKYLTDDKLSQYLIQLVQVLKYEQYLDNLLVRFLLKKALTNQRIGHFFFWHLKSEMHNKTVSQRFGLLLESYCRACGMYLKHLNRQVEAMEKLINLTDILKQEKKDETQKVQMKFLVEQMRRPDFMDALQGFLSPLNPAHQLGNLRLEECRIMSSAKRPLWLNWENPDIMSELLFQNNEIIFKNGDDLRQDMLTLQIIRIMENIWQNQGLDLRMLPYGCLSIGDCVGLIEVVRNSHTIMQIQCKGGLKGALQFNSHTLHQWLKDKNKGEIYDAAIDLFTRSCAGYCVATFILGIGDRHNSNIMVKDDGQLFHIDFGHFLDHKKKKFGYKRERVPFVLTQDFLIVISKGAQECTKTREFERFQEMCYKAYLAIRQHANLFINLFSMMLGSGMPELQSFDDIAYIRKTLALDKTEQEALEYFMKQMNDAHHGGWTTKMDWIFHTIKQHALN
T2 sequence (P27986 whole entry partner): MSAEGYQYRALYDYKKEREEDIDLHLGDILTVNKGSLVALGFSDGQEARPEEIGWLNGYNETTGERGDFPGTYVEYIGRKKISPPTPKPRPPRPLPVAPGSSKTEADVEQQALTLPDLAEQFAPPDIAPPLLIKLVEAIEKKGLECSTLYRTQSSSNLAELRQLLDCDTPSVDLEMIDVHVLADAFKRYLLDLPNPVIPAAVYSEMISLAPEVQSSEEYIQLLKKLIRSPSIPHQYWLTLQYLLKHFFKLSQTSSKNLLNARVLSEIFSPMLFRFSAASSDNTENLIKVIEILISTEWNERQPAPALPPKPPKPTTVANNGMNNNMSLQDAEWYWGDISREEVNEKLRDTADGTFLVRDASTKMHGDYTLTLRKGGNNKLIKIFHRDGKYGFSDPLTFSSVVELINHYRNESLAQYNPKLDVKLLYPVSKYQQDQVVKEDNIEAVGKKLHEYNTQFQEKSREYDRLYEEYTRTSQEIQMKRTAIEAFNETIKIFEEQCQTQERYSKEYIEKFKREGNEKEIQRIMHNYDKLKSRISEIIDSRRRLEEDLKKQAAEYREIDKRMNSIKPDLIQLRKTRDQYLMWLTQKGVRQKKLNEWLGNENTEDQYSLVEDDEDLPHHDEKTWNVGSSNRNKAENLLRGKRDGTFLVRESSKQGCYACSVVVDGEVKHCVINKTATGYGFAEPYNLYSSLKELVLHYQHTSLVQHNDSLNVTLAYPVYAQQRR
Summary of the method: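 Jurkat lysate from sonicated frozen cells was preincubated 1 h at rt with serially diluted compound up to 200 μM, then labelled 1 h at rt with PIK3CA biotin probe at 500 nM final. Probe-bound PIK3CA was captured on antibody-coated plates and detected with Neutravidin-HRP luminescence; TE50 derived from the dose response.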

T1 sequence (P42336 whole entry): as the sequence (P42336 whole entry) above
T1 sequence (P27986 whole entry partner): as the sequence (P27986 whole entry partner) above

Row | SMILES | IC50 [1] | IC50 [2]
1 | CC[C@@H](/C=C\S(C)(=O)=O)NC(=O)C1(F)CCN(S(=O)(=O)c2ccc(Cl)cc2-c2cccc(OC)c2)CC1 [Compound 83, (S,Z)-1-((5-chloro-3′-methoxy-[1,1′-biphenyl]-2-yl)sulfonyl)-4-fluoro-N-(1-(methylsulfonyl)pent-1-en-3-yl)piperidine-4-carboxamide] | 540 nM | 520 nM
2 | Cc1ccccc1-c1cc(C(C)C)ccc1S(=O)(=O)N1CCC(F)(C(=O)N[C@H](C)/C=C\S(C)(=O)=O)CC1 [Compound 115, (R,Z)-4-fluoro-1-((5-isopropyl-2′-methyl-[1,1′-biphenyl]-2-yl)sulfonyl)-N-(4-(methylsulfonyl)but-3-en-2-yl)piperidine-4-carboxamide] | 410 nM | 520 nM
3 | C[C@H](/C=C\S(C)(=O)=O)NC(=O)C1(F)CCN(S(=O)(=O)c2ncc(Br)cc2-c2ccccc2Cl)CC1 [Compound 218, (R,Z)-1-((5-bromo-3-(2-chlorophenyl)pyridin-2-yl)sulfonyl)-4-fluoro-N-(4-(methylsulfonyl)but-3-en-2-yl)piperidine-4-carboxamide] | 440 nM | 560 nM
4 | COc1cccc(-c2cc(F)ccc2S(=O)(=O)N2CCC(F)(C(=O)N[C@@H](C)/C=C\S(C)(=O)=O)CC2)c1 [Compound 9, (S,Z)-4-fluoro-1-((5-fluoro-3′-methoxy-[1,1′-biphenyl]-2-yl)sulfonyl)-N-(4-(methylsulfonyl)but-3-en-2-yl)piperidine-4-carboxamide] | 507 nM | 570 nM
5 | CCCCOc1cccc(-c2cc(Cl)ccc2S(=O)(=O)N2CCC(F)(C(=O)N[C@@H](C)/C=C\S(C)(=O)=O)CC2)c1 [Compound 13, (S,Z)-1-((3′-butoxy-5-chloro-[1,1′-biphenyl]-2-yl)sulfonyl)-4-fluoro-N-(4-(methylsulfonyl)but-3-en-2-yl)piperidine-4-carboxamide] | 340 nM | 480 nM
6 | C[C@H](/C=C\S(C)(=O)=O)NC(=O)C1(F)CCN(S(=O)(=O)c2ccc(N3CCCC3)cc2-c2ccccc2)CC1 [Compound 117, (R,Z)-4-fluoro-N-(4-(methylsulfonyl)but-3-en-2-yl)-1-((5-(pyrrolidin-1-yl)-[1,1′-biphenyl]-2-yl)sulfonyl)piperidine-4-carboxamide] | 810 nM | 830 nM
7 | C[C@H](/C=C\S(C)(=O)=O)NC(=O)C1(F)CCN(S(=O)(=O)c2ccc(N(C)C)cc2-c2ccccc2)CC1 [Compound 91, (R,Z)-1-((5-(dimethylamino)-[1,1′-biphenyl]-2-yl)sulfonyl)-4-fluoro-N-(4-(methylsulfonyl)but-3-en-2-yl)piperidine-4-carboxamide] | 430 nM | 280 nM
8 | C[C@@H](/C=C\S(C)(=O)=O)NC(=O)C1(F)CCN(S(=O)(=O)c2ccc(Cl)cc2-c2cccc(C#N)c2)CC1 [Compound 8, (S,Z)-1-((5-chloro-3′-cyano-[1,1′-biphenyl]-2-yl)sulfonyl)-4-fluoro-N-(4-(methylsulfonyl)but-3-en-2-yl)piperidine-4-carboxamide] | 1350 nM | 690 nM
9 | COc1ccc(S(=O)(=O)N2CCC(F)(C(=O)N[C@H](C)/C=C\S(C)(=O)=O)CC2)c(-c2ccccc2Cl)c1Cl [Compound 32, 1-((2′,6-dichloro-5-methoxy-[1,1′-biphenyl]-2-yl)sulfonyl)-4-fluoro-N-((R,Z)-4-(methylsulfonyl)but-3-en-2-yl)piperidine-4-carboxamide] | 820 nM | 930 nM
10 | C[C@H](/C=C\S(C)(=O)=O)NC(=O)C1(F)CCN(S(=O)(=O)c2cn(C)c(=O)cc2-c2ccccc2Cl)CC1 [Compound 274, (R,Z)-1-((4-(2-chlorophenyl)-1-methyl-6-oxo-1,6-dihydropyridin-3-yl)sulfonyl)-4-fluoro-N-(4-(methylsulfonyl)but-3-en-2-yl)piperidine-4-carboxamide] | 570 nM | 1100 nM
11 | C[C@@H](/C=C\S(C)(=O)=O)NC(=O)C1(F)CCN(S(=O)(=O)c2ccc(Cl)cc2-c2cccc(OCc3ccccc3Cl)c2)CC1 [Compound 265, (S,Z)-1-((5-chloro-3′-((2-chlorobenzyl)oxy)-[1,1′-biphenyl]-2-yl)sulfonyl)-4-fluoro-N-(4-(methylsulfonyl)but-3-en-2-yl)piperidine-4-carboxamide] | 390 nM | 330 nM
12 | COc1ccc(Cl)c(-c2cc(N(C)C)ccc2S(=O)(=O)N2CCC(F)(C(=O)N[C@@H](C)/C=C\S(C)(=O)=O)CC2)c1 [Compound 87, (S,Z)-1-((2′-chloro-5-(dimethylamino)-5′-methoxy-[1,1′-biphenyl]-2-yl)sulfonyl)-4-fluoro-N-(4-(methylsulfonyl)but-3-en-2-yl)piperidine-4-carboxamide] | 400 nM | 390 nM
13 | C[C@H](/C=C\S(C)(=O)=O)NC(=O)C1(F)CCN(S(=O)(=O)c2cc(=O)n(C)cc2-c2ccccc2Cl)CC1 [Compound 275, (R,Z)-1-((5-(2-chlorophenyl)-1-methyl-2-oxo-1,2-dihydropyridin-4-yl)sulfonyl)-4-fluoro-N-(4-(methylsulfonyl)but-3-en-2-yl)piperidine-4-carboxamide] | 910 nM | 1300 nM
14 | N#C/C=C/CNC(=O)C1(F)CCN(S(=O)(=O)c2ccc(Br)cc2-c2ccccc2Cl)CC1 [Compound 68, (E)-1-((5-bromo-2′-chloro-[1,1′-biphenyl]-2-yl)sulfonyl)-N-(3-cyanoallyl)-4-fluoropiperidine-4-carboxamide] | 330 nM | 465 nM
15 | CCCCCOc1cccc(-c2cc(Cl)ccc2S(=O)(=O)N2CCC(F)(C(=O)N[C@@H](C)/C=C\S(C)(=O)=O)CC2)c1 [Compound 262, (S,Z)-1-((5-chloro-3′-(pentyloxy)-[1,1′-biphenyl]-2-yl)sulfonyl)-4-fluoro-N-(4-(methylsulfonyl)but-3-en-2-yl)piperidine-4-carboxamide] | 430 nM | 780 nM

Further lines, results first:

Row | IC50 [1] | IC50 [2] | SMILES
16 | 61 nM | 110 nM | COc1cc(-c2ccccc2C)c(S(=O)(=O)N2CCC(F)(C(=O)N[C@@H](C)/C=C\S(C)(=O)=O)CC2)cn1 [Compound 190, (S,Z)-4-fluoro-1-((6-methoxy-4-(o-tolyl)pyridin-3-yl)sulfonyl)-N-(4-(methylsulfonyl)but-3-en-2-yl)piperidine-4-carboxamide]
17 | 261 nM | 340 nM | Cc1ccccc1-c1cc(N2CCC2)ccc1S(=O)(=O)N1CCC(F)(C(=O)N[C@H](C)/C=C\S(C)(=O)=O)CC1 [Compound 116, (R,Z)-1-((5-(azetidin-1-yl)-2′-methyl-[1,1′-biphenyl]-2-yl)sulfonyl)-4-fluoro-N-(4-(methylsulfonyl)but-3-en-2-yl)piperidine-4-carboxamide]
18 | 180 nM | 180 nM | COc1cc(-c2ccccc2Cl)c(S(=O)(=O)N2CCC(F)(C(=O)N[C@H](C)/C=C\S(C)(=O)=O)CC2)cc1OC [Compound 202, (R,Z)-1-((2′-chloro-4,5-dimethoxy-[1,1′-biphenyl]-2-yl)sulfonyl)-4-fluoro-N-(4-(methylsulfonyl)but-3-en-2-yl)piperidine-4-carboxamide]
19 | 210 nM | 150 nM | C[C@@H](/C=C\S(C)(=O)=O)NC(=O)C1(F)CCN(S(=O)(=O)c2ccc(Cl)cc2-c2cccc(OCc3cccnc3)c2)CC1 [Compound 260, (S,Z)-1-((5-chloro-3′-(pyridin-3-ylmethoxy)-[1,1′-biphenyl]-2-yl)sulfonyl)-4-fluoro-N-(4-(methylsulfonyl)but-3-en-2-yl)piperidine-4-carboxamide]
20 | 275 nM | 320 nM | CCOc1cccc(-c2cc(Cl)ccc2S(=O)(=O)N2CCC(F)(C(=O)N[C@@H](C)/C=C\S(C)(=O)=O)CC2)c1 [Compound 10, (S,Z)-1-((5-chloro-3′-ethoxy-[1,1′-biphenyl]-2-yl)sulfonyl)-4-fluoro-N-(4-(methylsulfonyl)but-3-en-2-yl)piperidine-4-carboxamide]
21 | 139 nM | 130 nM | C[C@H](/C=C\S(C)(=O)=O)NC(=O)C1(F)CCN(S(=O)(=O)c2ccc(N(C)C)cc2-c2ccccc2Cl)CC1 [Compound 92, (R,Z)-1-((2′-chloro-5-(dimethylamino)-[1,1′-biphenyl]-2-yl)sulfonyl)-4-fluoro-N-(4-(methylsulfonyl)but-3-en-2-yl)piperidine-4-carboxamide]
22 | 187 nM | 200 nM | COc1cccc(-c2cc(OC)ccc2S(=O)(=O)N2CCC(F)(C(=O)N[C@@H](C)/C=C\S(C)(=O)=O)CC2)c1 [Compound 5, (S,Z)-1-((3′,5-dimethoxy-[1,1′-biphenyl]-2-yl)sulfonyl)-4-fluoro-N-(4-(methylsulfonyl)but-3-en-2-yl)piperidine-4-carboxamide]
23 | 330 nM | 250 nM | COc1cccc(-c2cc(N(C)C)ccc2S(=O)(=O)N2CCC(F)(C(=O)N[C@@H](C)/C=C\S(C)(=O)=O)CC2)c1Cl [Compound 90, (S,Z)-1-((2′-chloro-5-(dimethylamino)-3′-methoxy-[1,1′-biphenyl]-2-yl)sulfonyl)-4-fluoro-N-(4-(methylsulfonyl)but-3-en-2-yl)piperidine-4-carboxamide]
24 | 238 nM | 290 nM | COc1ccc(S(=O)(=O)N2CCC(F)(C(=O)N[C@H](C)/C=C\S(C)(=O)=O)CC2)c(-c2ccccc2Cl)c1 [Compound 25, (R,Z)-1-((2′-chloro-5-methoxy-[1,1′-biphenyl]-2-yl)sulfonyl)-4-fluoro-N-(4-(methylsulfonyl)but-3-en-2-yl)piperidine-4-carboxamide]
